Test results from patent publication US20080182822A1, “Liquid Pharmaceutical Compositions Comprising a Bisphosphonate Compound” (Besins Healthcare SA, priority 2006, published 2008).
Read-outs that look alike come from different tables or passages of the source.

Tests used:
[1] = Bisphosphonate concentration at about 90% saturation in the vehicle; format: physicochemical
Procedure: Compositions in various vehicles (water/ethanol or buffer/ethanol, with or without additional ingredients, water (pure aqueous)) were prepared, using each bisphosphonate at a concentration of about 90% the saturation value. For example, “90/10” denotes a 90/10 (v/v) mixture of water/ethanol; “90/10 pH6” denotes a 90/10 (v/v) mixture of phosphate buffer pH6/ethanol.
Bisphosphonate concentrations are at about 90% saturation.
Risedronate sodium is generally administered using a dose of 35 mg of anhydrous monosodium risedronate, once a week. Advantageously, for a topical dose of 35 mg, this corresponds to 1.5 g of a solution according to one embodiment (risedronate at 90% saturation in phosphate-buffered hydroalcoholic solution 90/10 […], i.e. anhydrous monosodium risedronate at 22.4 mg/g). The same topical dose of 35 mg, corresponds to 0.8 g of another embodiment (risedronate at 90% saturation in pure water, i.e. anhydrous monosodium risedronate at 45.3 mg/g). […] The in vitro condition of application—i.e. 10 μl/1.77 cm^2—mimics an in vivo situation wherein the formulation is applied as a thin layer of 1-2 mg of formulation/cm^2.

ovariectomized rats [2] = settings: OVX rats
Text: (§1) Ovariectomized rats are a recognised model for bone loss study, as the surgical operation causes an estrogen deficiency which results in rapid bone loss. See Guideline on the evaluation of medicinal products in the treatment of primary osteoporosis, CPMP/EWP/552/95 available for download from the European Medicine Agency at: http://www.emea.europa.eu/.
(§2) 13-week old rats (Sprague-Dawley, virgin female), 8 per group, were sham operated (group 1-control) or ovariectomized (OVX) (groups 2 to 7) on the day before the first day of treatment.
Urinary deoxypyridinoline (D-pyr) and creatinine (Creat) were determined at baseline, week 4 and week 8. The ratio of D-Pyr to Creat is a recognised marker of bone resorption. See, e.g., Christenson RH “Biochemical markers of bone metabolism: an overview” Clin Biochem 1997, 30(8), 573-593.

ovariectomized rats [3] = settings: OVX rats; remark: listed apart in the source
Text: as §1, §2
Femur and L2-L5 lumbar vertebrae block Bone Mineral Density (BMD) were calculated from in vivo Dual-energy X-ray Absorptiometry (DXA) measurement at the same time points with an Hologic apparatus. BMD was also measured ex vivo on dissected femur and L4 vertebrae at the end of the treatment period.

[4] = rat
[5] = rat, published data, Lin et al.; cited from earlier work
[6] = In vitro dermal absorption, static diffusion cell (Franz cell)
[7] = phosphate-buffered hydroalcoholic solution 90/10
[8] = group 4: 4.46 mg/kg daily topical (reduced from 15.6 mg/kg/d after 2 weeks)
[9] = group 5: 15.6 mg/kg weekly topical
[10] = group 7: 10.85 mg/kg twice weekly topical (reduced from 15.6 mg/kg after 2 weeks)
[11] = buffered solution, compared to 100% phosphate buffer solution, FIG. 10 / FIG. 11

SMILES: NCCCC(O)(P(=O)(O)O)P(=O)(O)O [Sodium Alendronate]
- concentration at 90% saturation [1, 7]: 10.4 mg/g
- concentration at 90% saturation ([1]; pure water): 28.09 mg/g

SMILES: O=P([O-])(O)C(O)(Cc1cccnc1)P(=O)(O)O.[Na+] [Sodium Risedronate]
- concentration at 90% saturation [1, 7]: 22.4 mg/g
- concentration at 90% saturation ([1]; pure water): 45.3 mg/g

SMILES: NCCCC(O)(P(=O)(O)O)P(=O)(O)O [alendronate, 4-amino-1-hydroxybutylidene-1,1-bisphosphonic acid]
- D-pyr/Creat, Week 4 (ovariectomized rats [2]; group 3: 2 μg/kg daily sc inj): 118 ± 64
- D-pyr/Creat, Week 8 (ovariectomized rats [2]; group 3: 2 μg/kg daily sc inj): 72 ± 13
- D-pyr/Creat, Week 4 (ovariectomized rats [2]; [8]): 58 ± 13
- D-pyr/Creat, Week 8 (ovariectomized rats [2]; [8]): 42 ± 15
- D-pyr/Creat, Week 4 (ovariectomized rats [2]; [9]): 138 ± 60
- D-pyr/Creat, Week 8 (ovariectomized rats [2]; [9]): 67 ± 26
- D-pyr/Creat, Week 4 (ovariectomized rats [2]; [10]): 88 ± 52
- D-pyr/Creat, Week 8 (ovariectomized rats [2]; [10]): 57 ± 24
- BMD results compared with subcutaneous injection (group 3) or control (group 1) (ovariectomized rats [3]; topical groups 4-7, 8 weeks): similar
- BMD in the distal metaphysis (part of femur) compared with the subcutaneous injection group (group 3) (ovariectomized rats [3]; topically treated groups 4 and 7): statistically higher
- bone recovery after dermal administration ([4]; data from Example 4): 0.2%
- delivered dose contained in gauze wrap removed at 24 h ([4]; dermal administration): about 10%
- delivered dose contained in washing medium and swabs ([4]; dermal administration, 24 h): about 46%
- dermally delivered alendronate not absorbed ([4]; gauze wrap + washing medium and swabs at 24 h): 56%
- bone recovery after oral administration [5]: 0.9%

SMILES: O=P(O)(O)C(O)(Cc1cccnc1)P(=O)(O)O [risedronate, 1-hydroxy-2-(3-pyridyl)ethylidene-1,1-bisphosphonic acid]
- effect of glycerine on the amount recovered in the receptor fluid and the dermis ([6]; FIG. 12 / FIG. 13): does not significantly increase
- effect of propylene glycol (PG) on the amount recovered [6, 11]: does not significantly affect
- effect of urea on the amount recovered in the receptor fluid and the skin/dermis [6, 11]: increases
- effect of menthol on the amount recovered in the receptor fluid and dermis ([6]; menthol at 90% of saturating concentration in 90/10 phosphate buffer/ethanol, compared to pure phosphate buffer solution, FIG. 6 / FIG. 7): does not increase
- amount recovered in the receptor fluid and the dermis with oleic acid, compared to the 100% phosphate buffer solution ([6]; oleic acid at 90% of maximum solubility in 90/10 phosphate buffer/ethanol with Tween 80 at 4.5%, FIG. 12 / FIG. 13): lower
- effect of urea on the amount recovered in the receptor fluid and the skin ([6]; urea incorporated in phosphate buffer solution, FIG. 8 / FIG. 9): neutral effect
- recovery in the receptor fluid and the dermis at 24 hrs (crossing of the skin) ([6]; water/alcohol compositions, FIG. 1 / FIG. 2): does cross the skin
- effect of the increase in alcohol content on absorption, as percentage of the dose applied ([6]; water/alcohol ratios, FIG. 1 / FIG. 2): slightly increased
